Read-outs that look alike come from different tables or passages of the source. Blank lines part the entries; values can stand above or below the molecule they belong to.
Key:
central A1 receptors [1] = target: T1, central A1 receptors (Rattus norvegicus, UniProt P25099); assay type: binding
T1 construct: A1 -adenosine receptors in rat brain membranes; from tissue; host or cells: rat brain membranes
T1 sequence (P25099 1-326): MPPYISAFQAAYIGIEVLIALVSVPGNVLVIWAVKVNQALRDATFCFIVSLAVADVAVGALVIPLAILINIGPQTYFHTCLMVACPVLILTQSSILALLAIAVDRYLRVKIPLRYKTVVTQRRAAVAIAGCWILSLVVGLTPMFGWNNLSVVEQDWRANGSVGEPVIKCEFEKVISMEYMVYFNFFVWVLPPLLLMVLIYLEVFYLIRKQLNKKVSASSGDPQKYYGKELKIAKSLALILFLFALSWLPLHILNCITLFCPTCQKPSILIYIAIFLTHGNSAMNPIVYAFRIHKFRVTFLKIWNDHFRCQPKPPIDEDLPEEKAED

A1 adenosine receptors = target: T2, A1 adenosine receptors (Rattus norvegicus, UniProt P25099); assay: inhibition of binding of [3H]N6-phenylisopropyladenosine ([3H]PIA) to A1 adenosine receptors in rat cerebral cortex membranes
T2 construct: A1 adenosine receptors in rat cerebral cortex membranes; from tissue; host or cells: rat cerebral cortex membranes
T2 sequence (P25099 1-326): T1 sequence (P25099 1-326)
Procedure: Ukena et al., FEBS Letters 209;122, 1986.
For the biochemical assays, stock solutions of xanthines in the millimolar concentration range in dimethylsulfoxide were prepared and stored frozen. The solutions were warmed to 50° C. prior to dilution in aqueous medium. […] Acad. Sci. USA, 83:4089, 1986. Inhibition of binding by a range of concentrations of a xanthine or adenosine derivative was assessed in triplicate in at least three separate experiments.

central A1 receptors [2] = target: T3, central A1 receptors (Bos taurus, UniProt P28190); assay: inhibition of radioligand binding at central A1 receptors, calf brain membranes
T3 construct: A1 -adenosine receptors in membranes form calf brain; from tissue; host or cells: calf brain membranes
T3 sequence (P28190 1-326): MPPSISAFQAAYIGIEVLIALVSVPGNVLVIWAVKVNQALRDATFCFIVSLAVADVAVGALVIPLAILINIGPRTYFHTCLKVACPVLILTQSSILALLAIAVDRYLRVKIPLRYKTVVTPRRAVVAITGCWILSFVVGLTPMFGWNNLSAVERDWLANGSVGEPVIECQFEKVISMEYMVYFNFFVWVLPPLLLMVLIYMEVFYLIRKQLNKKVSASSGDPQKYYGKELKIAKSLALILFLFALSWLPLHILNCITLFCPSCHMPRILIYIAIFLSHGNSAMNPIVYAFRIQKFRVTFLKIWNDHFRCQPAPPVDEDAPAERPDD
Excerpt: ^b against [^125 I]APNEA (i.e. N^6
^b against [^125 I]APNEA;
The compounds, at concentrations relative to the Ki -values obtained, were screened for the ability to inhibit competitive binding of the radioligands [^3 H]PIA to rat brain membranes and [^3 H]XAC to bovine brain membranes, a shown in Table 1.

[3] = Table I, rat, against [3H]PIA, read-out: Ki at central A1 receptors, rat
[4] = Table I, calf, against [125I]APNEA, read-out: Ki at central A1 receptors, calf
[5] = read-out: Ki at central A1 receptors, calf
[6] = read-out: Ki at central A1 receptors, rat

SMILES: CCCn1c(=O)c2[nH]c(-c3ccc(OCC(=O)NCC=O)cc3)nc2n(CCC)c1=O [Compound 2b]
% inhib (conc) (central A1 receptors [1]; 500 nM, one hour incubation and washout, rat brain membranes, against [125I]APNEA): 0%
Ki (central A1 receptors [2]; [4]): 1.5 ± 0.1 nM
Ki (A1 adenosine receptors; [3]): 266 ± 40 nM

SMILES: CCCn1c(=O)c2[nH]c(-c3ccc(OCC(=O)NCCN)cc3)nc2n(CCC)c1=O [Compound 3, reference compound]
Ki (central A1 receptors [2]; [4]): 0.2 nM
Ki (A1 adenosine receptors; [3]): 1.1 ± 0.05 nM

SMILES: CCCn1c(=O)c2[nH]c(-c3ccc(OCC(=O)NCCNC(=S)Nc4cccc(N=C=S)c4)cc3)nc2n(CCC)c1=O [Compound 5b]
inhibition at 0.005 µM (central A1 receptors [1]; read-out: % inhib (conc)): 49%
potency of irreversible inhibition, meta versus para phenylisothiocyanate (central A1 receptors [1]; xanthine series, result in words): meta-position favored (5b) over the para-position (4b)
Ki (central A1 receptors [2]): 0.5 nM
relative potency in the binding assay, 5b versus 4b (A1 adenosine receptors; meta versus para isomer): more than twice as potent in the binding assay than 4b

SMILES: CCCn1c(=O)c2[nH]c(-c3ccc(OCC(=O)NCCNC(=O)Cc4ccc(NC(=S)Nc5ccc(N=C=S)cc5)cc4)cc3)nc2n(CCC)c1=O [Compound 15e]
inhibition at 0.1 µM (central A1 receptors [1]; read-out: % inhib (conc)): 10%
Ki (A1 adenosine receptors): 30 nM

SMILES: CCCn1c(=O)c2[nH]c(-c3ccc(OCC(=O)NCCNC(=O)CNC(=S)Nc4ccc(N=C=S)cc4)cc3)nc2n(CCC)c1=O [Compound 16c]
inhibition at 0.5 µM (central A1 receptors [1]; read-out: % inhib (conc)): 50%
irreversible inhibition of central A1-adenosine receptors (central A1 receptors [1]; result in words): behave pharmacologically as irreversible inhibitors of central A1 -adenosine receptors
Ki (A1 adenosine receptors; [3]): 6.85 ± 1.14 nM

SMILES: CCCn1c(=O)c2[nH]c(-c3ccc(OCC(=O)NCCNC(=O)CCCCCCC(=O)ON4C(=O)CCC4=O)cc3)nc2n(CCC)c1=O [Compound 21]
inhibition at 0.5 µM (central A1 receptors [1]; read-out: % inhib (conc)): 40%
irreversible inhibition of central A1-adenosine receptors (central A1 receptors [1]; result in words): inhibits binding irreversibly
Ki (central A1 receptors [2]; [4]): 15.8 nM
Ki (A1 adenosine receptors; [3]): 3.69 ± 0.71 nM

SMILES: NCCNC(=O)Cc1ccc(NC(=O)Cc2ccc(Nc3ncnc4c3ncn4[C@@H]3O[C@H](CO)[C@@H](O)[C@H]3O)cc2)cc1 [Compound 26a, reference compound]
Ki (central A1 receptors [2]): 0.2 nM

SMILES: O=C(Cc1ccc(NC(=O)Cc2ccc(Nc3ncnc4c3ncn4[C@@H]3O[C@H](CO)[C@@H](O)[C@H]3O)cc2)cc1)NCCN=C=S [Compound 26b]
Ki (central A1 receptors [2]): 2.5 nM
Ki (A1 adenosine receptors): 4 nM

SMILES: O=C(Cc1ccc(NC(=O)Cc2ccc(Nc3ncnc4c3ncn4[C@@H]3O[C@H](CO)[C@@H](O)[C@H]3O)cc2)cc1)NCCNC(=S)Nc1ccc(N=C=S)cc1 [Compound 27]
inhibition at 0.05 µM (central A1 receptors [1]; read-out: % inhib (conc)): > 80%
irreversible inhibition of central A1-adenosine receptors (central A1 receptors [1]; result in words): behave pharmacologically as irreversible inhibitors of central A1 -adenosine receptors
Ki (central A1 receptors [2]): 0.1 nM
Ki (A1 adenosine receptors): 0.47 ± 0.13 nM

SMILES: O=C(Cc1ccc(NC(=O)Cc2ccc(Nc3ncnc4c3ncn4[C@@H]3O[C@H](CO)[C@@H](O)[C@H]3O)cc2)cc1)NCCNC(=S)Nc1ccc(S(=O)(=O)O)cc1 [Compound 35]
Ki (A1 adenosine receptors; [6]): 100 nM

SMILES: O=C(CBr)NCCNC(=O)Cc1ccc(NC(=O)Cc2ccc(Nc3ncnc4c3ncn4[C@@H]3O[C@H](CO)[C@@H](O)[C@H]3O)cc2)cc1 [Compound 36]
Ki (A1 adenosine receptors; [6]): 5 nM

More lines, main results first:

inhibition at 0.5 µM (central A1 receptors [1]; read-out: % inhib (conc)): 0%
Ki (A1 adenosine receptors; [3]): 9 ± 0.7 nM
SMILES: CCCn1c(=O)c2[nH]c(-c3ccc(OCC(=O)ON4C(=O)CCC4=O)cc3)nc2n(CCC)c1=O [Compound 1]
irreversible inhibition of central A1-adenosine receptors (central A1 receptors [1]; result in words): only the longest of the series, SUS-XAC, 21, inhibits binding irreversibly

inhibition at 0.1 µM (central A1 receptors [1]; read-out: % inhib (conc)): 20%
Ki (A1 adenosine receptors; [3]): 2.5 ± 0.47 nM
SMILES: CCCn1c(=O)c2[nH]c(-c3ccc(OCC(=O)NCCNS(=O)(=O)c4cccc(S(=O)(=O)Cl)c4)cc3)nc2n(CCC)c1=O [Compound 13]

inhibition at 0.5 µM (central A1 receptors [1]; read-out: % inhib (conc)): 0%
Ki (central A1 receptors [2]; [5]): 3.2 nM
Ki (A1 adenosine receptors; [3]): 44 ± 9 nM
SMILES: CCCn1c(=O)c2[nH]c(-c3ccc(OCC(=O)NCCNC(=O)CCCCC(C)=O)cc3)nc2n(CCC)c1=O [Compound 17]

Ki (central A1 receptors [2]; [5]): 6.9 nM
Ki (A1 adenosine receptors; [3]): 11.5 ± 1.5 nM
SMILES: CCCn1c(=O)c2[nH]c(-c3ccc(OCC(=O)NCCNC(=O)c4ccc(CBr)cc4)cc3)nc2n(CCC)c1=O [Compound 19]

inhibition at 0.5 µM (central A1 receptors [1]; read-out: % inhib (conc)): 0%
Ki (A1 adenosine receptors; [3]): 20 ± 4.5 nM
SMILES: CCCn1c(=O)c2[nH]c(-c3ccc(OCC(=O)NCCNC(=O)CCC(=O)ON4C(=O)CCC4=O)cc3)nc2n(CCC)c1=O [Compound 20b]
irreversible inhibition of central A1-adenosine receptors (central A1 receptors [1]; result in words): only the longest of the series, SUS-XAC, 21, inhibits binding irreversibly
